The results in this text go back to patent US10538789B2, “Methods for biosynthesis of isoprene” (INVISTA NORTH AMERICA S.A.R.L., priority 2013, dated 2020).

Test [1] deals with T1, enoyl-CoA hydratase encoded by phaJ (SEQ ID NO: 16) (Aeromonas caviae, UniProt O32472).
T1 construct: His tag (C); made in house; host or cells: E. coli BL21[DE3]
T1 sequence (O32472 1-134): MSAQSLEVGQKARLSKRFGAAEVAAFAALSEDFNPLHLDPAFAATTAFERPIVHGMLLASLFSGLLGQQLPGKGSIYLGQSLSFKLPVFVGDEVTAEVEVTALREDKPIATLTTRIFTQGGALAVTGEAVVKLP
Description: Native enzyme activity assay in the forward (hydration) direction, spectrophotometry at 263 nm. It is filed as biochemical, Aeromonas punctata. The conditions noted are these: for acceptance as substrate, hydration direction, inferred from reversibility of the enzyme reaction: inferred from the dehydration results and the favoured hydration direction. The procedure: (§1) The C-terminal his-tagged phaJ gene (SEQ ID NO: 16) from Aeromonas punctata was cloned into a pE23a expression vector under the T7 promoter. The expression vector was transformed into a BL21[DE3] E. coli host.
(§2) The resulting recombinant E. coli strain was cultivated in a 1L shake flask culture containing 100 mL Luria Broth media at 30° C., shaking at 200 rpm. The culture was induced using 1 mM IPTG for 2 h.
(§3) The pellet from each of the induced shake flask cultures was harvested by centrifugation. The pellet was resuspended in 20 mM HEPES (pH=7.2), 1 mM PMSF and 29U benzonase. The resuspended pellet was lysed via sonication. The cell debris was separated from the supernatant via centrifugation and filtered using a 0.2 μm filter.
(§4) The phaJ enzyme was purified from the supernatant using Ni-affinity chromatography and concentrated to 1.25 mg/mL.
The native enzyme activity assay in the forward (hydration) direction was undertaken in a buffer composed of 10 mM ammonium acetate (pH=8) and 1 mM of crotonyl-CoA from Sigma-Aldrich at 30° C. The enzyme activity assay reaction was initiated by adding 0.4 μM of purified enoyl-CoA hydratase to the assay buffer containing the substrate. The enzyme encoded by phaJ accepted crotonyl-CoA as substrate as confirmed via spectrophotometry at 263 nm at 30° C.

Test [2] deals with T2, linalool dehydratase of SEQ ID NO: 13 (CBW30776.1) (Castellaniella defragrans, UniProt E1XUJ2).
T2 construct: expressed in transfected cells; host or cells: E. coli BL21[DE3], whole cells
T2 sequence (E1XUJ2 27-397): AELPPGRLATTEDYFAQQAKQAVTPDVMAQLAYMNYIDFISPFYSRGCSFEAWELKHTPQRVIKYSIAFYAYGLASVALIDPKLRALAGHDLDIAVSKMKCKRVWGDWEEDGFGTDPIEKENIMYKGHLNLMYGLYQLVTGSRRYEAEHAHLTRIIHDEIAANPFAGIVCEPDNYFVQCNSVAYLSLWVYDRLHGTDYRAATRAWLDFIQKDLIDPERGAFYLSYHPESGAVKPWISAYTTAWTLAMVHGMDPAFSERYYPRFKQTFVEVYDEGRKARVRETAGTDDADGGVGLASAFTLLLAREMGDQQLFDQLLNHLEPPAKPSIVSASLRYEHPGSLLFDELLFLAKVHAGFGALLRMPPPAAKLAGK
Description: Whole cell assay of linalool dehydratase in recombinant E. coli, headspace GC-MS for isoprene. It is filed as cell-based. The conditions noted are these: 20 mM substrate, 160 mg/mL cells in M9 minimal media, 30° C., 48 h, GC-MS versus empty vector control. The procedure: A sequence encoding a C-terminal His-tag encoding the linalool dehydratase of SEQ ID NO: 13 (see FIGS. 9A-9F) was cloned into a pET15 expression vector under control of the T7 promoter such that a C-terminal HIS tagged enzyme could be produced. The expression vector was transformed into a BL21[DE3] E. coli host. The resulting recombinant E. coli strain was cultivated at 30° C. in a 1L shake flask culture containing 100 mL Auto-Induction media and antibiotic selection pressure, shaking at 220 rpm overnight. The pellet from the induced shake flask culture was harvested via centrifugation and used immediately in a whole cell assay.
The pellet was washed and resuspended in M9 minimal media to 160 mg/mL (wet weight) and dispensed into 10 mL crimped glass vials in triplicate. The substrate 3-methyl-3-buten-2-ol was added to a final concentration of 20 mM and incubated at 30° C. at 220 rpm for 48 h. The headspace of each glass vial was analysed by GC-MS for isoprene and compared to the empty vector control (undertaken in triplicate). The gene product of SEQ ID NO: 13 accepted 3-methyl-3-buten-2-ol as substrate as confirmed via GC-MS (see FIG. 15) and synthesized isoprene as reaction product.

Test [3] addresses T1, enoyl-CoA hydratase encoded by phaJ (SEQ ID NO: 16). Description: Enzyme activity assay in the reverse (dehydration) direction, LC-MS. In kind it is biochemical. To be noted: 1 mM substrate, 5 μM purified enzyme, 10 mM ammonium acetate pH 8, 30° C., 1 h. The procedure:
as §1, §2, §3, §4
The native enzyme activity assay in the reverse (dehydration) direction was undertaken in a buffer composed of 10 mM ammonium acetate (pH=8) and 1 mM of racemic 3-hydroxybutanoyl-CoA. The enzyme activity assay reaction was initiated by adding 5 μM of purified enoyl-CoA hydratase to the assay buffer containing the substrate and incubated at 30° C. for 1 h. The enzyme encoded by phaJ accepted 3-hydroxybutanoyl-CoA as substrate as confirmed via LC-MS.
The non-native enzyme activity assay in the reverse (dehydration) direction was undertaken in a buffer composed of 10 mM ammonium acetate (pH=8) and 1 mM of 3-methyl-3-hydroxypentanoyl-CoA. The enzyme activity assay reaction was initiated by adding 5 μM of purified enoyl-CoA hydratase to the assay buffer containing the substrate and incubated at 30° C. for 1 h. The enzyme encoded by phaJ accepted 3-methyl-3-hydroxypentanoyl-CoA as substrate as confirmed via LC-MS.
The non-native enzyme activity assay in the reverse (dehydration) direction was undertaken in a buffer composed of 10 mM ammonium acetate (pH=8) and 1 mM of 4-methyl-3-hydroxypentanoyl-CoA. […]

In test [4] the target is T3, mevalonate diphosphate decarboxylase of SEQ ID NO: 11 (CAA66158.1) (Saccharomyces cerevisiae, UniProt P32377).
T3 construct: His tag (C); made in house; host or cells: E. coli BL21[DE3]
T3 sequence (P32377 1-396): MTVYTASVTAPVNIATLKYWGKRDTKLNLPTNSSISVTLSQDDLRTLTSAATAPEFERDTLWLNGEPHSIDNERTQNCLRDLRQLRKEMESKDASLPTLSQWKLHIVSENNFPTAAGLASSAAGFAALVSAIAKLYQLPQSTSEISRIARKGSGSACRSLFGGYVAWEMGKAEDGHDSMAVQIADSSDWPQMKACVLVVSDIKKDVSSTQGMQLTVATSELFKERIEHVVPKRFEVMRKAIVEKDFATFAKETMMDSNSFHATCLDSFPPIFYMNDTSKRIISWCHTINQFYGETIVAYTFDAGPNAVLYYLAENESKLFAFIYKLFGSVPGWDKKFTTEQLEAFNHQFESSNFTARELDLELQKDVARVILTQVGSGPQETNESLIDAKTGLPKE
Briefly: GHMP superfamily enzyme activity assay, headspace GC-MS for isoprene. It is filed as biochemical. To be noted: 10 mM substrate, 30 mM ATP, pH 7.0, 30° C., 24 h, GC-MS versus empty vector control. From the text:
(§5) Each of the sequences encoding a C-terminal His-tagged gene encoding the mevalonate diphosphate decarboxylase of SEQ ID NOs: 8, 9, 10, and 11 respectively (see FIGS. 9A-9F) and the mevalonate 3-kinase of SEQ ID NO: 12 (see FIGS. 9A-9F) was cloned into a PD681-CH expression vector under control of the rhapBAD promoter, such that a C-terminal HIS tagged GHMP superfamily enzyme could be produced. Each expression vector was transformed into a BL21[DE3] E. coli host. The resulting recombinant E. coli strains were cultivated at 37° C. in a 5L shake flask culture containing 1L Luria Broth (LB) media and kanamycin antibiotic selection pressure, with shaking at 90 rpm. At an OD600 between 0.6 to 0.8, the culture was induced with L-rhamnose to a final concentration of 2 g/L. The cultures was induced for 6 h at 37° C. The pellets from the induced shake flask cultures were harvested via centrifugation and stored at −20° C. […]
(§6) Each enzyme activity assay was performed in an assay buffer composed of 100 mM HEPES (pH=7.0), 100 mM KCl, 30 mM MgCl2, 30 mM ATP, 2 mM DTT and 10 mM of 3-methyl-3-hydroxypent-4-enoate as substrate. […] The headspace of each glass vial was analysed by GC-MS for isoprene and compared to the empty vector control. […]

For test [5], the target named is T4, mevalonate 3-kinase of SEQ ID NO: 12 (CAC12426.1) (Thermoplasma acidophilum, UniProt Q9HIN1).
T4 construct: His tag (C); made in house; host or cells: E. coli BL21[DE3]
T4 sequence (Q9HIN1 1-318): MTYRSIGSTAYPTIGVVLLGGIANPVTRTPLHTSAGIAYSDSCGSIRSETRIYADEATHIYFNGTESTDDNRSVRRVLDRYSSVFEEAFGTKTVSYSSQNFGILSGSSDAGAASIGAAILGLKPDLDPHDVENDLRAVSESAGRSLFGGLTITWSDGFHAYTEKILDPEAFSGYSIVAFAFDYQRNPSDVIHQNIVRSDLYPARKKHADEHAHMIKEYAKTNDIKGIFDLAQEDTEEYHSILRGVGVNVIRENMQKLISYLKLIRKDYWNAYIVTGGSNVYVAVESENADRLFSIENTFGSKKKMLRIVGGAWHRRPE
The test is described as above. In kind it is biochemical. To be noted: 10 mM substrate, 30 mM ATP, pH 7.0, 30° C., 24 h, GC-MS versus empty vector control.
Excerpt: as §5, §6

Test [6] relates to mevalonate diphosphate decarboxylase of SEQ ID NO: 9 (AHF01884.1). The test is described as above. In kind it is biochemical, Thioalkalimicrobium aerophilum. The conditions noted are these: 10 mM substrate, 30 mM ATP, pH 7.0, 30° C., 24 h, GC-MS versus empty vector control.
Excerpt: as §5, §6

In test [7] the test system is mevalonate diphosphate decarboxylase of SEQ ID NO: 10 (CAR68209.1). Described as above. In kind it is biochemical, Streptococcus pneumoniae. To be noted: 10 mM substrate, 30 mM ATP, pH 7.0, 30° C., 24 h, GC-MS versus empty vector control.
Excerpt: as §5, §6

The test system of test [8] is mevalonate diphosphate decarboxylase of SEQ ID NO: 8 (AAK33797.1). The description is as above. In kind it is biochemical, Streptococcus pyogenes. To be noted: 10 mM substrate, 30 mM ATP, pH 7.0, 30° C., 24 h, GC-MS versus empty vector control.
Excerpt: as §5, §6

With `C/C=C/C(=O)SCCNC(=O)CCNC(=O)[C@H](O)C(C)(C)COP(=O)(O)OP(=O)(O)OC[C@H]1O[C@@H](n2cnc3c(N)ncnc32)[C@H](O)[C@@H]1OP(=O)(O)O` [crotonyl-CoA, reference compound], the “acceptance as substrate, forward (hydration) direction” value in test [1] (1 mM substrate, 0.4 μM purified enzyme, 10 mM ammonium acetate pH 8, 30° C., spectrophotometry at 263 nm) was “accepted”.
With `CC(C)C=CC(=O)SCCNC(=O)CCNC(=O)[C@H](O)C(C)(C)COP(=O)(O)OP(=O)(O)OC[C@H]1O[C@@H](n2cnc3c(N)ncnc32)[C@H](O)[C@@H]1OP(=O)(O)O` [4-methyl-pent-2-enoyl-CoA], the “acceptance as substrate, hydration direction, inferred from reversibility of the enzyme reaction” value in test [1] is listed as “accepts”.
On to `C=C(C)C(C)O` (stereo not drawn) [3-methyl-3-buten-2-ol], for which, in test [2], the “acceptance as substrate, isoprene as reaction product” value is reported as “accepted”.
For `CC(O)CC(=O)SCCNC(=O)CCNC(=O)[C@H](O)C(C)(C)COP(=O)(O)OP(=O)(O)OC[C@H]1O[C@@H](n2cnc3c(N)ncnc32)[C@H](O)[C@@H]1OP(=O)(O)O` (mixture of isomers) [3-hydroxybutanoyl-CoA, reference compound], in test [3], the “acceptance as substrate, reverse (dehydration) direction” value is reported as “accepted”.
On the same count and under the same terms, under `CCC(C)(O)CC(=O)SCCNC(=O)CCNC(=O)[C@H](O)C(C)(C)COP(=O)(O)OP(=O)(O)OC[C@H]1O[C@@H](n2cnc3c(N)ncnc32)[C@H](O)[C@@H]1OP(=O)(O)O` (stereo partly drawn) [3-methyl-3-hydroxypentanoyl-CoA] stands “accepted”.
Regarding `C=CC(C)(O)CC(=O)O` (stereo not drawn) [3-methyl-3-hydroxypent-4-enoate], the “acceptance as substrate, isoprene as reaction product” value in test [4], in test [5], in test [6], in test [7] and in test [8] was “accepted” in each case.
In the case of `CCC(C)=CC(=O)SCCNC(=O)CCNC(=O)[C@H](O)C(C)(C)COP(=O)(O)OP(=O)(O)OC[C@H]1O[C@@H](n2cnc3c(N)ncnc32)[C@H](O)[C@@H]1OP(=O)(O)O` [3-methyl-pent-2-enoyl-CoA], the “acceptance as substrate, hydration direction, inferred from reversibility of the enzyme reaction” value in test [1] is given as “accepts”.
For the compound `CC(C)C(O)CC(=O)SCCNC(=O)CCNC(=O)[C@H](O)C(C)(C)COP(=O)(O)OP(=O)(O)OC[C@H]1O[C@@H](n2cnc3c(N)ncnc32)[C@H](O)[C@@H]1OP(=O)(O)O` (stereo partly drawn) [4-methyl-3-hydroxypentanoyl-CoA], the “acceptance as substrate, reverse (dehydration) direction” value in test [3] is on record as “accepted”.
